# Results from ChEMBL document CHEMBL5506031, “Design, Synthesis, Bioactive Evaluation, and Molecular Dynamics Simulation of Novel 4H-Pyrano[3,2-c]pyridine Analogues as Potential Sterol 14α-Demethylase (CYP51) Inhibitors” (J Med Chem, 2024).
# Legend:
# [1] = test system: Penicillium digitatum; assay: Fungicidal activity against Penicillium digitatum assessed as fungal inhibitory rate at 16 ug/ml relative to control; format: functional
# [2] = test system: Colletotrichum lagenaria; assay: Fungicidal activity against Colletotrichum lagenarium assessed as fungal inhibitory rate at 16 ug/ml relative to control; format: functional
# [3] = test system: Botrytis cinerea; assay: Fungicidal activity against Botrytis cinerea assessed as fungal inhibitory rate at 16 ug/ml relative to control; format: functional
# [4] = test system: Sclerotinia sclerotiorum; assay: Fungicidal activity against Sclerotinia sclerotiorum assessed as fungal inhibitory rate at 16 ug/ml relative to control; format: functional
# [5] = test system: Fusarium oxysporum; assay: Fungicidal activity against Fusarium oxysporum assessed as fungal inhibitory rate at 16 ug/ml relative to control; format: functional
# [6] = test system: Botrytis cinerea; assay: Fungicidal activity against Botrytis cinerea assessed as fungal growth reduction; format: functional, organism-based
# [7] = Inhibition of Botrytis cinerea CYP51 by ELISA
# [8] = test system: Aspergillus niger; assay: Antifungal activity against Aspergillus niger; format: functional
IC50 [7],MIC [8],SMILES,inhibition at 16 µg/mL [1],inhibition at 16 µg/mL [2],inhibition at 16 µg/mL [3],inhibition at 16 µg/mL [4],inhibition at 16 µg/mL [5],EC50 [6]
–,–,Cc1ccc(/C=C2\CN(C(=O)c3cccs3)CC3=C2OC(N)=C(C#N)C3c2ccc(C)s2)s1 (stereo unspecified),20.1%,20.5%,51.8%,21.1%,20.3%,–
0.748 µg/mL,–,COC(=O)C1=C(N)OC2=C(CN(C(=O)c3cccs3)C/C2=C\c2ccc(Br)o2)C1c1ccc(Br)o1 (stereo unspecified),73.1%,78.3%,100%,80%,80.9%,0.61 µg/mL
–,–,Cc1ccc(/C=C2\CN(C(=O)c3cccs3)CC3=C2OC(N)=C(C#N)C3c2ccc(C)o2)o1 (stereo unspecified),21.9%,23.4%,56.9%,24.7%,22.9%,–
1.522 µg/mL,–,N#CC1=C(N)OC2=C(CN(C(=O)c3cccs3)C/C2=C\c2ccc(Br)o2)C1c1ccc(Br)o1 (stereo unspecified),54.5%,–,100%,62.7%,55.2%,1.3 µg/mL
–,–,N#CC1=C(N)OC2=C(CN(C(=O)c3ccco3)C/C2=C\c2ccc(Br)s2)C1c1ccc(Br)s1 (stereo unspecified),25.7%,28.1%,66.5%,31.6%,25%,–
–,125 µg/mL,COc1ccc(C2c3ccc4ncccc4c3Oc3nc[nH]c(=S)c32)cc1 (stereo unspecified),–,–,–,–,–,–
–,–,Cc1ccc(/C=C2\CN(C(=O)c3ccco3)CC3=C2OC(N)=C(C#N)C3c2ccc(C)o2)o1 (stereo unspecified),39%,–,85.4%,46.2%,38.1%,–
–,–,CN1CC2=C(OC(N)=C(C#N)C2c2ccc(Br)o2)/C(=C/c2ccc(Br)o2)C1 (stereo unspecified),78.2%,–,72.8%,87.2%,52.2%,–
–,–,COC(=O)C1=C(N)OC2=C(CN(C(=O)c3ccco3)C/C2=C\c2cccs2)C1c1cccs1 (stereo unspecified),36.1%,38.2%,82.2%,43.4%,34%,–
0.907 µg/mL,–,COC(=O)C1=C(N)OC2=C(CN(C(=O)c3cccs3)C/C2=C\c2ccc(Cl)s2)C1c1ccc(Cl)s1 (stereo unspecified),67.5%,72.2%,100%,74.1%,72.8%,0.824 µg/mL
–,125 µg/mL,COc1ccc(C2c3ccc4ccccc4c3Oc3[nH]c(=S)[nH]c(=S)c32)cc1 (stereo unspecified),–,–,–,–,–,–
1.649 µg/mL,–,N#CC1=C(N)OC2=C(CN(C(=O)c3cccs3)C/C2=C\c2ccco2)C1c1ccco1 (stereo unspecified),51.7%,57%,100%,58.5%,52.7%,1.34 µg/mL
–,–,COC(=O)C1=C(N)OC2=C(CN(C)C/C2=C\c2ccc(Br)o2)C1c1ccc(Br)o1 (stereo unspecified),–,–,60%,77.4%,45.6%,–
–,–,N#CC1=C(N)OC2=C(CN(C(=O)c3cccs3)C/C2=C\c2cccs2)C1c1cccs1 (stereo unspecified),30.2%,33.7%,73.6%,37.6%,–,–
1.425 µg/mL,–,N#CC1=C(N)OC2=C(CN(C(=O)c3ccco3)C/C2=C\c2ccco2)C1c1ccco1 (stereo unspecified),58.2%,–,100%,65.4%,–,1.17 µg/mL
–,–,COC(=O)C1=C(N)OC2=C(CN(C)C/C2=C\c2ccc(Br)s2)C1c1ccc(Br)s1 (stereo unspecified),22.5%,33.6%,31.6%,38.3%,20.3%,–
2.625 µg/mL,–,N#CC1=C(N)OC2=C(CN(C(=O)c3cccs3)C/C2=C\c2ccc(Cl)s2)C1c1ccc(Cl)s1 (stereo unspecified),44.8%,48.7%,92.9%,50.8%,43.5%,2.25 µg/mL
